Reference: patent US10155751B2, “Pyrazolyl-substituted heteroaryls and their use as medicaments” (Boehringer Ingelheim International GmbH, priority 2015, dated 2018)

Tests used:
[1] = molecular target: Recombinant human SYK (amino acids 342-635), GST-SYK kinase fusion protein (Homo sapiens (Human), UniProt P43405); assay: SYK kinase inhibition test (Kinase Glo luminescence); assay type: biochemical; settings: read-out: SYK inhibition IC50-value (chapter 5.1)
Protocol: The catalytic activity of the GST-SYK kinase fusion protein was determined using the Kinase Glo® Luminescence Kinase test (Promega; V6712). In this homogeneous test the amount of ATP remaining after the kinase reaction is quantified by a luciferin-luciferase reaction using luminescence. The luminescence signal obtained correlates with the amount of ATP still present and thus correlates inversely with the activity of the kinase.
The test compounds were dissolved in 100% DMSO at a concentration of 10 mM and diluted in DMSO to a concentration of 1 mM. Serial Dilution is done in 100% DMSO. All further dilutions of the substances were carried out with test buffer (25 mM HEPES pH7.5; 25 mM MgCl2; 5 mM MnCl2; 50 mM KCl; 0.2% HSA; 0.01% CHAPS; 100 μM Na3VO4; 0.5 mM DTT). Dilution steps and concentration range were adapted according to need. 7 μl aliquots of these dilutions were transferred into a 384-well Optiplate (Perkin Elmer, #6007290). GST-SYK was diluted to 12 nM in the test buffer and 5 μl of this dilution were used in the kinase test (final concentration of SYK=4 nM in a total volume of 15 μl). After 15 minutes incubation at room temperature 3 μl of a mixture of 750 nM ATP and 100 μg/ml poly (L-Glutamic acid L-Tyrosine 4:1), Fluka #81357) in test buffer were added to each well and the incubation was continued for a further 60 minutes at room temperature.
(§1) Positive controls are the reaction mixtures that contain no test substance; negative controls (blanks) are reaction mixtures that contain no kinase.
After 60 minutes, 10 μl Kinase-Glo® solution (Promega, Cat. # V6712) (heated to room temperature) were added to each well and incubation was continued for a further 15 minutes. The plates were read in Envision Luminescence Reader (Perkin-Elmer).
The output file of the reader is a csv file that contains the well number and measured relative light units (RLU). For data evaluation and calculation, the measurement of the negative control was set as 100% ctrl and the measurement of the positive control was set as 0% ctrl. Based on this values the % value for the measurement of each substance concentration was calculated using an Assay Explorer software (Accelrys). Normally, the % ctrl values calculated are between 0% and 100% values but may also occur outside these limits in individual cases based on variability or compound characteristics. The IC50-values were calculated from the % ctrl values using Assay Explorer software. Calculation: [y=(a−d)/(1+(x/c)^b)+d] a=low value, d=high value; x=conc M; c=IC50 M; b=hill; y=% ctrl.
Satisfying SYK inhibitory capacities are represented by an IC50(SYK)-Value measured by this assay of <10 nMol.

[2] = molecular target: Recombinant human FLT3 (amino acids 564-958) (Homo sapiens (Human), UniProt P36888); assay: FLT3 kinase test (ADP Glo); assay type: biochemical; settings: read-out: FLT3 inhibition IC50-value (chapter 5.4)
Chain of Recombinant human FLT3 (amino acids 564-958) (P36888 564-958): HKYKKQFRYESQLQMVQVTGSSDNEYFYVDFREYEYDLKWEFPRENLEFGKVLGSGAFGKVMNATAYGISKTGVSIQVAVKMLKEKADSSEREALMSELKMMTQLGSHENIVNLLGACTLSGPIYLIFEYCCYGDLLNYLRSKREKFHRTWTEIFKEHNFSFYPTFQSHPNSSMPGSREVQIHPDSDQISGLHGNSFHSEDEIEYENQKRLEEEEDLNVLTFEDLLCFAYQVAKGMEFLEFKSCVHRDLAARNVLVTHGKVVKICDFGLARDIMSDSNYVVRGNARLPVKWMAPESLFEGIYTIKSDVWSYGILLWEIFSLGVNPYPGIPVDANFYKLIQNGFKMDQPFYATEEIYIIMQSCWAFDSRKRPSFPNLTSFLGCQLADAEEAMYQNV
Protocol: The activity of the FLT3 kinase protein was determined using the ADP Glo® Luminescence Kinase test (Promega; V9103X). In this homogeneous test the amount of ADP remaining after the kinase reaction is quantified by a luciferin-luciferase reaction using luminescence. The luminescence signal obtained correlates with the amount of ADP still present and thus correlates with the activity of the protein kinase.
The test compounds were dissolved in 100% DMSO at a concentration of 10 mM and diluted in DMSO to a concentration of 5 mM. Serial Dilution is done in 1:10 steps in 100% DMSO. All further dilutions of the substances were carried out with test buffer (50 mM Hepes, pH 7.5, 10 mM MgCl2, 1 mM EGTA, 0.01% Brij35, 0.1% BSA) until a concentration was reached which was 2.5 times above the final test concentration (final concentration of the compounds: 50 μM to 0.005 nM). […] FLT3 enzyme was diluted to 5 nM in the test buffer and 4 μl of this dilution were used in the kinase test (final concentration of FLT3=2 nM in a total volume of 10 μl). After 60 minutes incubation at room temperature 2 μl mixture of 2.5 mg/ml substrate (Poly-Glu/Tyr; Sigma #P0275) and 2.5 mM ultra-pure ATP (Promega #V915B) in test buffer were added to each well and the incubation was continued for a further 90 minutes at room temperature.
as §1
After 90 minutes, 10 μl ADP-Glo® solution (ADP-Glo Reagent #V912B Promega) (heated to room temperature) were added to each well and incubation was continued for a further 60. minutes. Then 20 μl Kinase detection mix (Detection Buffer #V913B Promega; Kinase Detection Substrate #V914B Promega) were added and incubated for 40 minutes at room temperature. The plates were read in Envision Luminescence Reader (Perkin-Elmer).
The output file of the reader is a csv file that contains the well number and measured RLU. For data evaluation and calculation, the measurement of the negative control was set as 0% ctrl and the measurement of the positive control was set as 100% ctrl. Based on this values the % value for the measurement of each substance concentration can be calculated using an Assay Explorer software (e.g. Accelrys). Normally, the % ctrl values calculated are between 0% and 100% values but may also occur outside these limits in individual cases based on variability or compound characteristics. The IC50 values were calculated from the % ctrl values using Assay Explorer software. Calculation: [y=(a−d)/(1+(x/c)^b)+d], a=low value, d=high value; x=conc. M; c=IC50 M; b=hill; y=% ctrl.

SMILES | IC50 [1] [nM] | IC50 [2] [nM]
Cc1c2c(O[C@H](C)[C@H]3CNC(=O)C3)cc(-c3cnn(C(C)(C)C#N)c3)cc2nn1C [Example 17, 2-(4-{2,3-Dimethyl-4-[(R)-1-((R)-5-oxo-pyrrolidin-3-yl)-ethoxy]-2H-indazol-6-yl}-pyrazol-1-yl)-2-methyl-propionitrile] | 2.9 | 11300
Cc1c2c(O[C@H](C)[C@H]3CNC(=O)C3)cc(-c3cnn(CC(C)C)c3)cc2nn1C [Example 19, (R)-4-{(R)-1-[6-(1-Isobutyl-1H-pyrazol-4-yl)-2,3-dimethyl-2H-indazol-4-yloxy]-ethyl}-pyrrolidin-2-one] | 1.8 | 4950
Cc1c2c(O[C@H](C)[C@H]3CNC(=O)O3)nc(-c3cnn(C(C)(C)C)c3)cc2nn1C [Example 3, (R)-5-{(R)-1-[6-(1-tert-Butyl-1H-pyrazol-4-yl)-2,3-dimethyl-2H-pyrazolo[4,3-c]pyridin-4-yloxy]-ethyl}-oxazolidin-2-one] | 2 | 1340
Cc1c2c(O[C@H](C)[C@H]3CNC(=O)C3)cc(-c3cnn(CCF)c3)cc2nn1C [Example 11, (R)-4-((R)-1-{6-[1-(2-Fluoro-ethyl)-1H-pyrazol-4-yl]-2,3-dimethyl-2H-indazol-4-yloxy}-ethyl)-pyrrolidin-2-one] | 1.5 | 3480
C[C@@H](Oc1cc(-c2cnn(CC3CC3)c2)cc2nn(C)c(F)c12)[C@H]1CNC(=O)C1 [Example 6, (R)-4-{(R)-1-[6-(1-Cycloprop-ylmethyl-1H-pyrazol-4-yl)-3-fluoro-2-methyl-2H-indazol-4-yloxy]-ethyl}-pyrrolidin-2-one] | 2.6 | 3730
Cc1c2c(O[C@H](C)[C@H]3CNC(=O)C3)cc(-c3cnn(C4CC4)c3)cc2nn1C [Example 20, (R)-4-{(R)-1-[6-(1-Cyclopropyl-1H-pyrazol-4-yl)-2,3-dimethyl-2H-indazol-4-yloxy]-ethyl}-pyrrolidin-2-one] | 2.5 | 3320
